Usually IC50 stands for the concentration that inhibits the measured activity by half.

In ChEMBL document CHEMBL5137118, “Zamamiphidins B and C, Manzamine-Related Alkaloids from an Amphimedon sp. Marine Sponge Collected in Okinawa” (J Nat Prod, 2022) one finds IC50 data, which are given here for 2 compounds.

Assay [1] has as its system KB. Put plainly: Cytotoxicity against human KB cells assessed as inhibition of cell growth. It counts as functional, cell-based.
The subject of assay [2] is L1210. The assay is described as follows: Cytotoxicity against mouse L1210 cells assessed as inhibition of cell growth. Format: functional, cell-based.
For assay [3], the target named is Acetylcholinesterase (Electrophorus electricus, UniProt O42275). Put plainly: Inhibition of electric eel AChE using acetylthiocholine iodide as substrate preincubated for 30 mins followed by substrate addition and measured after 5 mins by DTNB-reagent based Ellman's method.
Chain of Acetylcholinesterase (O42275 whole entry): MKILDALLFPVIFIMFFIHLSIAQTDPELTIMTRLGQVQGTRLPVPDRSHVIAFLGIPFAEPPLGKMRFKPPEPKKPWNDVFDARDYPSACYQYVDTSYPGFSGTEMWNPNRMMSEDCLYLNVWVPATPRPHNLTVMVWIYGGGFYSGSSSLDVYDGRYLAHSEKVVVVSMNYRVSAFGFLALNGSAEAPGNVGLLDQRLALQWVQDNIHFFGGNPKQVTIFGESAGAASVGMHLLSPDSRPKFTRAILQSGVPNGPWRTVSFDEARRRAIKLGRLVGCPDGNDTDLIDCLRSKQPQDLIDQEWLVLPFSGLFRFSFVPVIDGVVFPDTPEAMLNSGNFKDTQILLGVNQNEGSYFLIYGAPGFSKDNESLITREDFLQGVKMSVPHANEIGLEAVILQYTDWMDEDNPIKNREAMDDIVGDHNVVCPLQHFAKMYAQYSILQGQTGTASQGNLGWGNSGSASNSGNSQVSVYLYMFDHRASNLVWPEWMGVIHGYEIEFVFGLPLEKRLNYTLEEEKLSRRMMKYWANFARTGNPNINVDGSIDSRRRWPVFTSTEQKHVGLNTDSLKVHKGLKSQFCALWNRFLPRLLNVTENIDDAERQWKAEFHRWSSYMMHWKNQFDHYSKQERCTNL

The structures appear in SMILES notation.

As for `O[C@H]1CCCC[N+]23C[C@@H]4C=C5CC/C=C\CCCCN6CC[C@@H]4[C@](CC[C@H]12)(C6)[C@H]53`, the IC50 in assay [1] is > 10 µg/mL; in assay [2], > 10 µg/mL; in assay [3] it was 350 µM.

Consider `O[C@@H]1CCCC[N+]23C[C@@H]4C=C5CC/C=C\CCCCN6CC[C@@H]4[C@](CC[C@H]12)(C6)[C@H]53`, for which the concentration for half-maximal inhibition (IC50) in assay [1] was > 10 µg/mL; in assay [2], > 10 µg/mL; in assay [3], 470 µM.
